Laboratory results: the supplement of paper PMC11061612

Tests used:
[1] = system: KGN (Other Solid Carcinomas); assay: Bliss excess, mean over the matrix (fraction); higher = more synergy
Summary of the method: (§1)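 Cell lines grown in DMEM/F12 or RPMI with 10% FBS were plated in 1536-well plates and held 24 hours at 37°C, 5% CO2 before 72 hours of exposure to two-drug dose matrices, with DMSO typically at 0.2%. CellTiter-Glo 2.0 luminescence gave viability, which was converted to inhibition. Vehicle wells were set to 0 and blank wells to 1. Combination Emax is the second-highest inhibition in the matrix, and Bliss excess is the observed combination effect minus the expected EA + EB − EA·EB, where EA and EB are the single-agent effects.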

COLO-679 (Melanoma) = assay: as above
Summary of the method: as §1

[2] = system: SNU-387 (Hepatocellular Carcinoma); assay: as above
Summary of the method: as §1

[3] = system: MV-4-11 (Acute Myeloid Leukemia); assay: as above
Summary of the method: as §1

[4] = system: DU-145 (Prostate Carcinoma); assay: as above
Summary of the method: as §1

[5] = system: KGN (Other Solid Carcinomas); assay: combination Emax (second highest fraction inhibited in the dose matrix, 72 h); higher = more inhibition; extreme values may be limits of the assay
Summary of the method: as §1

[6] = system: MOLT-4 (T-Lymphoblastic Leukemia); assay: as above
Summary of the method: as §1

[7] = system: EFO-21 (Ovarian Carcinoma); assay: as above
Summary of the method: as §1

[8] = system: ME-180 (Cervical Carcinoma); assay: as above
Summary of the method: as §1

[9] = system: Ca-Ski (Cervical Carcinoma); assay: as above
Summary of the method: as §1

[10] = system: NCI-H1355 (Lung Adenocarcinoma); assay: as above
Summary of the method: as §1

[11] = system: SNU-387 (Hepatocellular Carcinoma); assay: as above
Summary of the method: as §1

[12] = system: KMRC-1 (Kidney Carcinoma); assay: as above
Summary of the method: as §1

[13] = system: OE33 (Esophageal Adenocarcinoma); assay: as above
Summary of the method: as §1

[14] = system: SKN (Other Solid Carcinomas); assay: as above
Summary of the method: as §1

[15] = system: Mo-T (Other Blood Carcinomas); assay: as above
Summary of the method: as §1

[16] = system: NCI-H1993 (Lung Adenocarcinoma); assay: as above
Summary of the method: as §1

[17] = system: NCI-H522 (Lung Adenocarcinoma); assay: as above
Summary of the method: as §1

[18] = system: ML-2 (Acute Myeloid Leukemia); assay: as above
Summary of the method: as §1

[19] = system: MV-4-11 (Acute Myeloid Leukemia); assay: as above
Summary of the method: as §1
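Wherever Bliss excess, mean over the matrix is given: after 72 h of two-drug dosing.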

SMILES | Bliss excess [1] | Bliss excess (COLO-679 (Melanoma)) | Bliss excess [2] | Bliss excess [3] | Bliss excess [4] | combination Emax [5] | combination Emax [6] | combination Emax [7] | combination Emax [8] | combination Emax [9] | combination Emax [10] | combination Emax [11] | combination Emax [12] | combination Emax [13] | combination Emax [14] | combination Emax [15] | combination Emax [16] | combination Emax [17] | combination Emax [18] | combination Emax [19]
CN(CCO)CC[C@H](CSc1ccccc1)Nc1ccc(S(=O)(=O)NC(=O)c2ccc(N3CCC([C@@H](O)c4ccccc4-c4ccc(Cl)cc4)CC3)cc2)cc1S(=O)(=O)C(F)(F)F [AZD4320] + C1CN(CCC1(C(=O)N[C@@H](CCO)C2=CC=C(C=C2)Cl)N)C3=NC=NC4=C3C=CN4 [Capivasertib] (first compound max 1 µM, 7x7, partner max 3 µM) | -0.0839 | -0.0431 | -0.0399 | 0.0185 | -0.0342 | 0.323 | 1 | 0.168 | 0.507 | 0.766 | 0.239 | 0.213 | 0.51 | 0.0577 | 0.401 | 0.697 | 0.791 | 0.049 | 0.984 | 1
CN(CCO)CC[C@H](CSc1ccccc1)Nc1ccc(S(=O)(=O)NC(=O)c2ccc(N3CCC([C@@H](O)c4ccccc4-c4ccc(Cl)cc4)CC3)cc2)cc1S(=O)(=O)C(F)(F)F [AZD4320] + CC(=O)O[C@H]1C(=O)[C@@]2(C)[C@H]([C@H](OC(=O)c3ccccc3)[C@]3(O)C[C@H](OC(=O)[C@H](O)[C@@H](NC(=O)c4ccccc4)c4ccccc4)C(C)=C1C3(C)C)[C@]1(OC(C)=O)CO[C@@H]1C[C@@H]2O [Paclitaxel] (first compound max 1 µM, 7x7, partner max 3 µM) | 0.0039 | -0.0012 | 0.0767 | 0.0055 | 0.0406 | 0.99 | 1 | 0.714 | 1 | 1 | 0.984 | 1 | 0.733 | 0.678 | 0.978 | 1 | 0.984 | 0.882 | 1 | 1
CN(CCO)CC[C@H](CSc1ccccc1)Nc1ccc(S(=O)(=O)NC(=O)c2ccc(N3CCC([C@@H](O)c4ccccc4-c4ccc(Cl)cc4)CC3)cc2)cc1S(=O)(=O)C(F)(F)F [AZD4320] + CCN(CCO)CCCOc1ccc2c(Nc3cc(CC(=O)Nc4cccc(F)c4)[nH]n3)ncnc2c1 [AZD2811] (first compound max 1 µM, 7x7, partner max 1 µM) | -0.0739 | 0.0201 | -0.0127 | 0.0064 | -0.0341 | 0.497 | 1 | 0.196 | 0.624 | 0.907 | 0.239 | 0.227 | 0.144 | 0.0773 | 0.613 | 0.768 | 0.704 | 0.105 | 1 | 1
CN(CCO)CC[C@H](CSc1ccccc1)Nc1ccc(S(=O)(=O)NC(=O)c2ccc(N3CCC([C@@H](O)c4ccccc4-c4ccc(Cl)cc4)CC3)cc2)cc1S(=O)(=O)C(F)(F)F [AZD4320] + C[C@@H]1COCCN1C2=NC(=NC(=C2)C3(CC3)[S@](=N)(=O)C)C4=C5C=CNC5=NC=C4 [AZD6738] (first compound max 1 µM, 7x7, partner max 10 µM) | -0.0198 | -0.0266 | -0.0443 | -0.0066 | -0.0335 | 0.874 | 1 | 0.433 | 0.564 | 0.773 | 0.77 | 0.541 | 0.656 | 0.843 | 0.663 | 0.937 | 0.766 | 0.156 | 1 | 1
CN(CCO)CC[C@H](CSc1ccccc1)Nc1ccc(S(=O)(=O)NC(=O)c2ccc(N3CCC([C@@H](O)c4ccccc4-c4ccc(Cl)cc4)CC3)cc2)cc1S(=O)(=O)C(F)(F)F [AZD4320] + C[C@@H](Nc1cc(F)cc(F)c1)c1cc(C(=O)N(C)C)cc2c(=O)cc(N3CCOCC3)oc12 [AZD8186] (first compound max 1 µM, 7x7, partner max 3 µM) | 0.0014 | -0.0469 | 0.0168 | 0.0114 | -0.0296 | 0.493 | 0.982 | 0.381 | 0.338 | 0.509 | 0.34 | 0.419 | 0.771 | 0.229 | 0.634 | 0.989 | 0.874 | 0.213 | 0.999 | 1
CN(CCO)CC[C@H](CSc1ccccc1)Nc1ccc(S(=O)(=O)NC(=O)c2ccc(N3CCC([C@@H](O)c4ccccc4-c4ccc(Cl)cc4)CC3)cc2)cc1S(=O)(=O)C(F)(F)F [AZD4320] + Cc1cc2ncnn2cc1Nc1ncc2c(n1)n(C1CCOCC1)c(=O)n2C [AZD7648] (first compound max 1 µM, 7x7, partner max 10 µM) | -0.103 | -0.0351 | -0.041 | -0.0133 | -0.0355 | 0.437 | 0.98 | 0.224 | 0.26 | 0.208 | 0.269 | 0.178 | 0.222 | 0.222 | 0.15 | 0.578 | 0.785 | 0.0447 | 0.966 | 1
CN(CCO)CC[C@H](CSc1ccccc1)Nc1ccc(S(=O)(=O)NC(=O)c2ccc(N3CCC([C@@H](O)c4ccccc4-c4ccc(Cl)cc4)CC3)cc2)cc1S(=O)(=O)C(F)(F)F [AZD4320] + Cn1cnc2c(F)c(Nc3ccc(Br)cc3Cl)c(C(=O)NOCCO)cc21 [Selumetinib] (first compound max 1 µM, 7x7, partner max 3 µM) | 0.0113 | 0.0716 | 0.0149 | 0.0513 | 0.0057 | 0.34 | 0.993 | 0.322 | 0.333 | 0.588 | 0.368 | 0.445 | 0.253 | 0.214 | 0.454 | 0.996 | 0.935 | 0.301 | 1 | 1
CN(CCO)CC[C@H](CSc1ccccc1)Nc1ccc(S(=O)(=O)NC(=O)c2ccc(N3CCC([C@@H](O)c4ccccc4-c4ccc(Cl)cc4)CC3)cc2)cc1S(=O)(=O)C(F)(F)F [AZD4320] + Nc1ccn([C@@H]2O[C@H](CO)[C@@H](O)C2(F)F)c(=O)n1 [Gemcitabine] (first compound max 1 µM, 7x7, partner max 0.3 µM) | -0.0204 | -0.0226 | -0.0646 | -0.023 | -0.033 | – | 1 | 0.473 | 0.878 | 0.91 | 0.406 | 0.218 | 0.902 | 0.586 | 0.783 | 0.997 | 0.937 | 0.224 | 1 | 1
Cc1c2c(nn1C)CSCc1cc(n(C)n1)CSc1cc(c3ccccc3c1)OCCCc1c(C(=O)O)n(C)c3c-2c(Cl)ccc13 [AZD5991] + Cn1cnc2c(F)c(Nc3ccc(Br)cc3Cl)c(C(=O)NOCCO)cc21 [Selumetinib] (first compound max 1 µM, 7x7, partner max 3 µM) | -0.0338 | -0.0191 | 0.064 | 0.0172 | 0.003 | 0.299 | 0.339 | 0.36 | 0.26 | 0.633 | 0.316 | 0.619 | 0.197 | 0.19 | – | 0.296 | 0.511 | 0.409 | 1 | 1
Cc1cc2ncnn2cc1Nc1ncc2c(n1)n(C1CCOCC1)c(=O)n2C [AZD7648] + C=CCn1c(=O)c2cnc(Nc3ccc(N4CCN(C)CC4)cc3)nc2n1-c1cccc(C(C)(C)O)n1 [AZD1775] (first compound max 10 µM, partner max 1 µM) | -0.0266 | -0.0446 | -0.123 | 0.053 | -0.0341 | 0.833 | 1 | 0.511 | 0.529 | 0.704 | 0.672 | 0.383 | 0.307 | 0.537 | 0.38 | 0.52 | 0.635 | 0.373 | 1 | 0.954
Cc1cc2ncnn2cc1Nc1ncc2c(n1)n(C1CCOCC1)c(=O)n2C [AZD7648] + CCN(CCO)CCCOc1ccc2c(Nc3cc(CC(=O)Nc4cccc(F)c4)[nH]n3)ncnc2c1 [AZD2811] (first compound max 10 µM, 7x7, partner max 1 µM) | -0.0649 | -0.0126 | -0.0345 | -0.0538 | -0.0078 | 0.722 | 0.965 | 0.297 | 0.389 | 0.349 | 0.519 | 0.254 | 0.267 | 0.245 | 0.282 | 0.37 | 0.573 | 0.213 | 0.832 | 0.945
